Data: the supplement of paper PMC11208160

Experiment: recombinant barcode read abundance after kanamycin selection (control-corrected) (log10(CPM+1)); higher = more efficient recombination; sequences stand for … in AGTGCAGAGAAAATCGGCCAGTTTTCTCTGCCTGCAGTCCGCATGCCGT…AGATTTATGCAGCGGACTGCCTTTCTCCCAAAGTGATAAACCGGACAGTATCATGGACCGGTTTTCCCGGTAATCCGTATTTGCAAGGTTGGTTTCACT; site = the 11-nt target
Method in brief: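 Each value is log10(CPM+1). It describes recombination efficiency, taken as averaged, control-corrected counts per million of barcodes at recombinant junctions. The pooled E. coli library paired targets with IS621 bridge RNA target-binding loops, was co-electroporated with a donor plasmid, and was plated twice on chloramphenicol/ampicillin LB agar (control) and twice on chloramphenicol/ampicillin/kanamycin containing 0.1 mM IPTG.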
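Also: IS621 recombinase and bridge RNA in Escherichia coli cells.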

In order of rising “recombinant barcode read abundance (log10)” value:
1. CCTTCCTCTTGGGTTCTAACCTGTTGCCT (site CTTTCCTCTAG)  0
2. CCAACCGCTTGGGTTCTAACCTGTTGCCT (site CAAACCGCTAG)  0.0169
3. GATGCTACTTGGGTTCTAACCTGTTGCCA (site GATGCTACTTG)  0.0236
4. TGTTCTTCTTGGGTTCTAACCTGTTGCCT (site TGTTCATCTAG)  0.0245
5. TTGCAAACTTGGGTTCTAACCTGTTGCCT (site TTGCTAACTAG)  0.0349
6. AGGGAGACTTGGGTTCTAACCTGTTGCCA (site AGGCAGACTTG)  0.0382
7. TGCGTGTCTTGGGTTCTAACCTGTTGCTG (site TACGTGTCTTA)  0.0382
8. CTCGTAGCTTGGGTTCTAACCTGTTGCGG (site CTCGTACCTCC)  0.0414
9. AGAACTCCTTGGGTTCTAACCTGTTGCTG (site TCTTGCTCTAG)  0.0485
10. CTTGGGTCTTGGGTTCTAACCTGTTGCAT (site TCCCATACTTC)  0.0573
11. CGCAAGCCTTGGGTTCTAACCTGTTGCAT (site CGCAAGCCTAT)  0.0608
12. TTAACTACTTGGGTTCTAACCTGTTGCTG (site TTAACTACTTA)  0.0609
13. AGTTGTCCTTGGGTTCTAACCTGTTGCCT (site AGTTGTCCTAC)  0.0671
14. TCGAAGGCTTGGGTTCTAACCTGTTGCCT (site TCCAAGGCTAG)  0.0717
15. ACCGCTACTTGGGTTCTAACCTGTTGCCT (site AGCGCTACTAG)  0.0813
16. CTCCATACTTGGGTTCTAACCTGTTGCCT (site CTCCATTCTAG)  0.0874
17. CTGGCGCCTTGGGTTCTAACCTGTTGCAT (site TCTCGAGCTTC)  0.0909
18. GAGGGCTCTTGGGTTCTAACCTGTTGCGG (site AGTTCACCTTA)  0.0921
19. CGCCTCTCTTGGGTTCTAACCTGTTGCCT (site CGCCTCACTAG)  0.0921
20. TGTCCCTCTTGGGTTCTAACCTGTTGCCT (site TGTTCCTCTAG)  0.0962
21. TCTCCGCCTTGGGTTCTAACCTGTTGCCT (site TCTCTGCCTAG)  0.0964
22. TCGAGTGCTTGGGTTCTAACCTGTTGCCT (site TCGAGTGCTAG)  0.0982
23. GACGGATCTTGGGTTCTAACCTGTTGCCT (site GACGGATCTAC)  0.101
24. CGGAGTCCTTGGGTTCTAACCTGTTGCTA (site CGGTGTCCTTA)  0.102
25. TTCAAGTCTTGGGTTCTAACCTGTTGCCT (site TTCAAGACTAG)  0.102
26. CGAATCCCTTGGGTTCTAACCTGTTGCCT (site CGAATCACTAG)  0.107
27. CAACCGGCTTGGGTTCTAACCTGTTGCCT (site CAACCGTCTAG)  0.111
28. GATGGCCCTTGGGTTCTAACCTGTTGCCT (site GGTGGCCCTAG)  0.113
29. TCGAACCCTTGGGTTCTAACCTGTTGCGA (site TCGGACCCTTC)  0.114
30. GTAAGGACTTGGGTTCTAACCTGTTGCGG (site CAGTCAGCTAG)  0.115
31. TATTATCCTTGGGTTCTAACCTGTTGCCT (site TATTAGCCTAG)  0.121
32. TGACGTCCTTGGGTTCTAACCTGTTGCTT (site TGACGTCCTAG)  0.122
33. AATTCACCTTGGGTTCTAACCTGTTGCCT (site TATTCACCTAG)  0.129
34. AGGAGCTCTTGGGTTCTAACCTGTTGCTA (site AGGAACTCTAA)  0.131
35. GAATATTCTTGGGTTCTAACCTGTTGCCT (site GAGTATTCTAG)  0.136
36. AGCTACTCTTGGGTTCTAACCTGTTGCTT (site AGTTAATCTAA)  0.144
37. GAACGACCTTGGGTTCTAACCTGTTGCCT (site TAACGACCTAG)  0.144
38. GGTCGAGCTTGGGTTCTAACCTGTTGCCT (site GGTCGGGCTAG)  0.146
39. TGGTAACCTTGGGTTCTAACCTGTTGCCT (site GGGTAACCTAG)  0.148
40. CCTTTGTCTTGGGTTCTAACCTGTTGCTT (site CCTTTGACTAA)  0.155
41. CAATCGTCTTGGGTTCTAACCTGTTGCGG (site CAGCCGTCTCC)  0.166
42. CCACAGTCTTGGGTTCTAACCTGTTGCCT (site CCACGGTCTAG)  0.169
43. CTACTAACTTGGGTTCTAACCTGTTGCCT (site CTACTAACTAT)  0.182
44. GGACGCCCTTGGGTTCTAACCTGTTGCCT (site GGACGGCCTAG)  0.186
45. GATCACCCTTGGGTTCTAACCTGTTGCAT (site CGAGTGTCTTA)  0.193
46. GCCTTGGCTTGGGTTCTAACCTGTTGCCT (site GCCTGGGCTAG)  0.195
47. CTAAAGCCTTGGGTTCTAACCTGTTGCCT (site CTAAGGCCTAG)  0.2
48. GCATCTACTTGGGTTCTAACCTGTTGCCT (site GTATCTACTAG)  0.2
49. CTTAGGACTTGGGTTCTAACCTGTTGCCT (site CTTAGGACTAG)  0.205
50. ATAAGCCCTTGGGTTCTAACCTGTTGCCT (site ACAAGCCCTAG)  0.212
51. TAGTCCGCTTGGGTTCTAACCTGTTGCCG (site TAGCCCTCTCG)  0.214
52. CATCATTCTTGGGTTCTAACCTGTTGCCT (site CATCATTCTAG)  0.215
53. CTCGTAGCTTGGGTTCTAACCTGTTGCCT (site AGTAGTTCTCT)  0.223
54. ACAGTCGCTTGGGTTCTAACCTGTTGCCT (site ACAGACGCTAG)  0.229
55. GGTGCGTCTTGGGTTCTAACCTGTTGCCT (site AGTGCGTCTAG)  0.246
56. GGAGTTGCTTGGGTTCTAACCTGTTGCCT (site GGAGATTCTAG)  0.273
57. AATTGTCCTTGGGTTCTAACCTGTTGCAT (site AATTGTCCTAA)  0.296
58. GACACGCCTTGGGTTCTAACCTGTTGCCT (site GACACGCCTAA)  0.301
59. CTTCACACTTGGGTTCTAACCTGTTGCAT (site CTTCACGCTAG)  0.316
60. TTGGCCGCTTGGGTTCTAACCTGTTGCCT (site TTGGGCGCTAG)  0.374
61. AAGCGTCCTTGGGTTCTAACCTGTTGCCT (site AAGCGTACTAG)  0.384
62. AGCCTGCCTTGGGTTCTAACCTGTTGCCT (site AGCCTGCCTAG)  0.389
63. GGACGCCCTTGGGTTCTAACCTGTTGCCT (site GGACGACCTAG)  0.427
64. AGAGCTCCTTGGGTTCTAACCTGTTGCCG (site AGATCTCCTAG)  0.468
65. CCAAGGACTTGGGTTCTAACCTGTTGCCT (site CCAGGGACTAG)  0.47
66. CGTCCTGCTTGGGTTCTAACCTGTTGCCT (site CGTCCTGCTAG)  0.488
67. TCCCAGTCTTGGGTTCTAACCTGTTGCAT (site TCCCAGTCTAA)  0.542
68. CTCTGTCCTTGGGTTCTAACCTGTTGCCA (site CTCTGTCCTTG)  0.545
69. GTGCTAACTTGGGTTCTAACCTGTTGCCA (site GTGCTAACTTG)  0.626
70. GTGTTTCCTTGGGTTCTAACCTGTTGCAT (site GTGTATCCTAT)  0.654
71. TAAAACCCTTGGGTTCTAACCTGTTGCAT (site TAAAACCCTAT)  0.713
72. TCCAACCCTTGGGTTCTAACCTGTTGCCA (site TCCAACCCTTG)  0.715
73. GCGCATCCTTGGGTTCTAACCTGTTGCCT (site GCGAATCCTAG)  0.719
74. ACGGCGCCTTGGGTTCTAACCTGTTGCCT (site ACGGCGCCTAG)  1.12
75. TAGCTCACTTGGGTTCTAACCTGTTGCAT (site TAGCTCACTAT)  1.17
76. AGGTCCTCTTGGGTTCTAACCTGTTGCTT (site AGGTCCTCTAT)  1.2
77. GAGGCTACTTGGGTTCTAACCTGTTGCAT (site GAGGCTACTAT)  1.26
78. GAGTCGTCTTGGGTTCTAACCTGTTGCTT (site GAGTCGTCTAA)  1.45
79. TATCGGGCTTGGGTTCTAACCTGTTGCAG (site TATCGGGCTCT)  1.57
80. ACTGCGTCTTGGGTTCTAACCTGTTGCCT (site ACTGCGTCTAG)  1.6
81. TAGGACACTTGGGTTCTAACCTGTTGCCA (site TAGGACACTTG)  1.86
82. ACAGTAGCTTGGGTTCTAACCTGTTGCTG (site ACAGTAGCTCA)  1.87
83. AGACTCCCTTGGGTTCTAACCTGTTGCAC (site AGACTCCCTGT)  2.08
84. CAATGGTCTTGGGTTCTAACCTGTTGCAT (site CAATGGTCTAT)  2.71
85. AAGGACGCTTGGGTTCTAACCTGTTGCCT (site AAGGACGCTAG)  2.72
86. GGGGCCTCTTGGGTTCTAACCTGTTGCTG (site GGGGCCTCTCA)  3.02
